Key:
[1] = test system: human colon cancer (HCT116) cells; assay: MTT cytotoxicity assay, HCT116; format: cell-based; conditions: five doses 0.01-100 µM
Procedure: (§1) The cytotoxicity of the desired compounds was assessed through MTT assay against two human cancer cell lines, human breast cancer (MCF-7) and colon cancer (HCT116), and one normal cell line, human embryonic kidney 293T (HEK293T). CPT and etoposide (VP-16) were used as positive controls. The compounds were incubated with cells for 72 h in a five-dose assay ranging from 0.01 to 100 µΜ. After the drug treatments, MTT solution was added to test the percentage growth of tumor cells.
(§2) The cells were cultured on RPMI 1640 Medium at 37 °C in a humidified atmosphere with 5% CO2. The cytotoxicities of the target compounds were evaluated through MTT assay against two human cancer cell lines (human breast cancer MCF-7 and human colon cancer HCT116). For the compound treatment experiments, the cancer cells were treated with the compounds (pre-dissolved in DMSO) via a five-dose assay ranging from 10^−8 to 10^−4 M. After incubation for 72 h at 37 °C, MTT solution (20 μL, 2.5 mg/mL) in PBS (PBS without MTT as the blank) was added to each well of the culture plate. After incubation for 4 h, the formazan crystal formed in the well was dissolved in 100 μL of DMSO for an optical density of 570 nm. The IC50 value was calculated using nonlinear regression analysis (GraphPad Prism). Every experiment was conducted three times, independently.

[2] = MTT cytotoxicity assay, HEK293T normal cells; format: cell-based, human; conditions: human, HEK293T cells (normal cell line)
Procedure: as §1, §2

[3] = test system: human breast cancer (MCF-7) cells; assay: MTT cytotoxicity assay, MCF-7; format: cell-based; conditions: five doses 0.01-100 µM
Procedure: as §1, §2

calf thymus Top1 = biological target: T1, calf thymus Top1 (Bos taurus, UniProt F1MN93); assay: Top1-mediated DNA relaxation assay; format: biochemical; conditions: for supercoiled DNA remaining: compound at 125 μM; for Relaxation Assay (Top1 inhibitory activity): compounds at 50 µM, semi-quantitative, relative to CPT at 50 µM
T1 construct: 1 unit of calf thymus Top1; from tissue; host or cells: calf thymus
T1 sequence (F1MN93 1-767): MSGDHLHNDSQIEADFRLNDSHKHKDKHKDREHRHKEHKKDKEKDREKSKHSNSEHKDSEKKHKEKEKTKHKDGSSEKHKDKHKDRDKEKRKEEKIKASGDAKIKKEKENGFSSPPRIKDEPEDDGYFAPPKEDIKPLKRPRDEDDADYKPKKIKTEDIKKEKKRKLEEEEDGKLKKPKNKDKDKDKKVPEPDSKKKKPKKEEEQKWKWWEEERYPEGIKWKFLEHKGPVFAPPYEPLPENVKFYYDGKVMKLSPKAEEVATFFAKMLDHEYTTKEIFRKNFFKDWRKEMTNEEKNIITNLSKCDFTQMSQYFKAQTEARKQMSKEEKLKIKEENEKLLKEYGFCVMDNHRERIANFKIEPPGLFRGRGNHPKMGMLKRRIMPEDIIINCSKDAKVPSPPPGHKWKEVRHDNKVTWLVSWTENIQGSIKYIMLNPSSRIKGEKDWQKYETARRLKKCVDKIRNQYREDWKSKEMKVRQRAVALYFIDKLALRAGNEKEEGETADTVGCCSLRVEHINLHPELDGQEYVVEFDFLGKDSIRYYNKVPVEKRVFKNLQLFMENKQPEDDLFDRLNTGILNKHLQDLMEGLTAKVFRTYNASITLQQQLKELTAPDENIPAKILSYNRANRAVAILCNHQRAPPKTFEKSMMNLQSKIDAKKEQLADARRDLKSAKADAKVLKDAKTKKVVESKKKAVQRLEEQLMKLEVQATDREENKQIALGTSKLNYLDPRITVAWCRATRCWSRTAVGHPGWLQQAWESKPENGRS
Procedure: The synthesized compounds 6–37 were evaluated for Top1 inhibitory activity by measurement of the Top1-mediated DNA relaxation assay. The compounds were tested at 50 µΜ using CPT as positive control, and the results were semi-quantitatively expressed relative to CPT at 50 µΜ as follows: ++++, more than 80% activity; +++, between 40% and 79% activity; ++, between 10% and 39% activity; +, less than 10% activity. […] In phenyl A, the 4-position halogen (X) remarkably affected the inhibition against Top1. […] In phenyl B, the introduction of substituents at the 3-position was beneficial for the Top1 inhibition, and the derivatives presented good tolerance of the 3-substituents, since compounds 8 (++++) and 13 (+++) with electron-donating -Me or -OMe and also compound 19 (+++) with electron-withdrawing -Br had good inhibition against Top1. For substituents at the 4-position, the strong electron-withdrawing -CF3 (10, +++) and -F (15, +++) increased the Top1 inhibitory activity compared to compound 6 (R = H), while the weak electron-withdrawing -Cl (17, +) and the electron-donating -Me (9, +) and -OMe (14, +) decreased the activity, with the exception of tert-Bu (11, +++).
As previously mentioned, compound 8 had the best inhibition activity against Top1, and therefore was selected for further investigation. A semi-quantitative Top1-mediated relaxation assay of compound 8 was performed at concentrations of 0.2, 1, 5, 25 and 125 μM.
The compounds were tested for their Top1 inhibitory activity using a Top1-mediated relaxation assay. Briefly, the reaction mixture (20 μL) with 0.5 μg of supercoiled pBR322 DNA in relaxation buffer (10 mM Tris-HCl, pH 7.5, 50 mM KCl, 5 mM MgCl2, 15 μg/mL BSA, 40 μg/mL DTT) was incubated with 1 unit of calf thymus Top1 in the absence or in the presence of the compound for 30 min at 37 °C. Then, the reaction solution was added with 6 × loading buffer (4 μL) and was analyzed using a 0.8% agarose gel in TBE buffer at 4.6 V/cm for 1.5 h. Gel was stained with 1 × GelRed for 30 min and subsequently visualized with a UV transilluminator.

[4] = test system: human embryonic kidney 293T (HEK293T) cells; assay: MTT cytotoxicity assay, HEK293T normal cells; format: cell-based; conditions: 72 h, normal cell line
Procedure: as §1, §2

[5] = semi-quantitative relaxation assay (Figure 3)

Structure (SMILES) | IC50 ([1]; Homo sapiens, HCT-116, 72 h) [µM] | IC50 at 72 h [2] [µM] | IC50 ([3]; Homo sapiens, MCF7, 72 h) [µM] | supercoiled DNA remaining (calf thymus Top1; [5]) [%] | IC50 [4] [µM] | melting point [°C] | Top1 inhibition compared with CPT (calf thymus Top1; compound at 25 μM, semi-quantitative relaxation assay (Figure 3)) | IC50 ([3]; 72 h) [µM] | IC50 ([1]; 72 h) [µM] | Relaxation Assay (Top1 inhibitory activity) (calf thymus Top1)
CC[C@@]1(O)C(=O)OCc2c1cc1n(c2=O)Cc2cc3ccccc3nc2-1 [CPT, camptothecin, reference compound] | 0.012 ± 0.001 | 0.1 ± 0.003 | 0.34 ± 0.026 | 58 | – | – | – | – | – | –
Cc1cccc(/C=C/c2nc(-c3ccc(F)cc3)cs2)c1 [Compound 8, (E)-2-(3-methylstyryl)-4-(4-fluorophenyl)thiazole] | – | > 10 | – | 75 | 10.2 ± 0.68 | 148 to 149 | equipotent Top1 inhibition with CPT | – | – | –
CC(C)(C)c1ccc(/C=C/c2nc(-c3ccc(F)cc3)cs2)cc1 [Compound 11, (E)-2-(4-tert-butylstyryl)-4-(4-fluorophenyl)thiazole] | – | > 10 | < 10 | – | 12 ± 2.45 | 146 to 148 | – | 6.31 ± 0.51 | – | –
CC(C)(C)c1ccc(/C=C/c2nc(-c3ccc(Cl)cc3)cs2)cc1 [Compound 23, (E)-4-(4-chlorophenyl)-2-(4-(tert-butyl)styryl)thiazole] | < 5 | > 10 | < 10 | – | 18.7 ± 1.37 | 74 to 75 | – | 7.22 ± 0.4 | 2.87 ± 0.26 | + (less than 10% activity)
COc1ccccc1/C=C/c1nc(-c2ccc(Br)cc2)cs1 [Compound 30, (E)-4-(4-bromophenyl)-2-(2-methoxystyryl)thiazole] | > 100 | – | > 100 | – | – | 110 to 112 | – | – | – | + (less than 10% activity)
COc1cccc(/C=C/c2nc(-c3ccc(Br)cc3)cs2)c1 [Compound 31, (E)-4-(4-bromophenyl)-2-(3-methoxystyryl)thiazole] | 40.3 ± 7.8 | – | 45.8 ± 4.47 | – | – | 112 to 113 | – | – | – | + (less than 10% activity)
COc1ccc(/C=C/c2nc(-c3ccc(Br)cc3)cs2)cc1 [Compound 32, (E)-4-(4-bromophenyl)-2-(4-methoxystyryl)thiazole] | > 100 | – | > 100 | – | – | 189 to 191 | – | – | – | + (less than 10% activity)
Oc1ccccc1/C=C/c1nc(-c2ccc(Br)cc2)cs1 [Compound 33, (E)-2-(2-(4-(4-bromophenyl)thiazol-2-yl)vinyl)phenol] | < 5 | – | 39.2 ± 1.79 | – | – | 226 to 228 | – | – | 4.15 ± 0.76 | + (less than 10% activity)
Oc1ccc(/C=C/c2nc(-c3ccc(Br)cc3)cs2)cc1 [Compound 35, (E)-4-(2-(4-(4-bromophenyl)thiazol-2-yl)vinyl)phenol] | < 5 | – | 38 ± 5.82 | – | – | 204 to 205 | – | – | 2.86 ± 0.46 | + (less than 10% activity)
CC(C)=CCOc1ccc(/C=C/c2nc(-c3ccc(Br)cc3)cs2)cc1 [Compound 37, (E)-4-(4-bromophenyl)-2-(4-((3-methylbut-2-en-1-yl)oxy)styryl)thiazole] | > 100 | – | > 100 | – | – | 134 to 135 | – | – | – | + (less than 10% activity)
